Key:
[1] = system: RSV B (Wash/18537 strain); assay: In vitro CPE (CytoPathic Effect) inhibition effect evaluation test, RSV type B; assay type: cell-based; conditions: human respiratory syncytial virus, inhibitory effect against RSV type B, CPE inhibition; read-out: EC50
Outline: (§1)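 EC50 is the concentration giving 50% inhibition of virus-induced cytopathic effect, fitted by nonlinear regression from CellTiter-Glo 2.0 viability. Compounds in 3-fold series were co-incubated at 37 °C with HEp-2 cells and RSV: A2 strain for 4 days, B (Wash/18537) for 5 days; uninfected wells served as control.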

[2] = system: RSV A2 strain; assay: In vitro CPE (CytoPathic Effect) inhibition effect evaluation test, RSV type A; assay type: cell-based; conditions: human respiratory syncytial virus; inhibitory effect against RSV type A (RSV A2 strain), HEp-2 cells, CPE inhibition; read-out: EC50
Outline: as §1

Row | Compound | EC50 [1] [nM] | EC50 [2] [nM]
1 | O=C(NC1(C(=O)O)C2CC3CC(C2)CC1C3)c1cnc(N2CC3(CCCCC3)c3cc(OC4CCN(C5CSC5)CC4)ccc32)nc1C(F)(F)F (stereo not drawn) [Compound I-485] | 10 to 100 | < 10
2 | O=C(NC1(C(=O)O)C2CC3CC(C2)CC1C3)c1cnc(N2CC3(CCCC3)c3cc(OC4CCC5(CC4)COC5)ccc32)nc1C(F)(F)F (stereo not drawn) [Compound I-488] | < 10 | < 10
3 | O=C(NC1(C(=O)O)C2CC3CC(C2)CC1C3)c1cnc(N2CC3(CCOCC3)c3cc(OCCC(F)(F)F)ncc32)nc1C(F)(F)F (stereo not drawn) [Compound I-489] | < 10 | < 10
4 | O=C(NC1(C(=O)O)C2CC3CC(C2)CC1C3)c1cnc(N2CC3(CCOCC3)c3cc(C(=O)N4CC(C(F)(F)F)C4)ccc32)nc1C(F)(F)F (stereo not drawn) [Compound I-490] | < 10 | < 10
5 | O=C(NC1(C(=O)O)C2CC3CC(C2)CC1C3)c1cnc(N2CC3(CCOCC3)c3cc(C(=O)N4CC(F)(F)C4)ccc32)nc1C(F)(F)F (stereo not drawn) [Compound I-491] | 10 to 100 | < 10
6 | CC(=O)N1CC(N2CCC(Oc3ccc4c(c3)C3(CCCCC3)CN4c3ncc(C(=O)NC4(C(=O)O)C5CC6CC(C5)CC4C6)c(C(F)(F)F)n3)CC2)C1 (stereo not drawn) [Compound I-492] | 10 to 100 | < 10
7 | O=C(NC1(C(=O)O)C2CC3CC(C2)CC1C3)c1cnc(N2CC3(CCC(F)(F)CC3)c3cc(OC4CCN(CC(F)(F)F)CC4)ccc32)nc1C(F)(F)F (stereo not drawn) [Compound I-493] | < 10 | < 10
8 | O=C(NC1(C(=O)O)C2CC3CC(C2)CC1C3)c1cnc(N2CC3(CCCCC3)c3cc(OC4CN(c5ncc(F)cn5)C4)ccc32)nc1C(F)(F)F (stereo not drawn) [Compound I-494] | < 10 | < 10
9 | O=C(NC1(C(=O)O)C2CC3CC(C2)CC1C3)c1cnc(N2CC3(CCCCC3)c3cc(OC4CN(CC(F)(F)F)C4)ccc32)nc1C(F)(F)F (stereo not drawn) [Compound I-495] | < 10 | < 10
10 | CCC(CC)n1cc(-c2ncc(C(=O)NC3(C(=O)O)C4CC5CC(C4)CC3C5)c(C(F)(F)F)n2)c2ccc(O[C@H]3CC[C@H](N4CC(F)(F)C4)CC3)cc21 (stereo partly drawn) [Compound I-496] | < 10 | < 10
11 | O=C(NC1(C(=O)O)C2CC3CC(C2)CC1C3)c1cnc(-c2cn(C3CC3)c3cc(O[C@H]4CC[C@H](N5CC(F)(F)C5)CC4)ccc23)nc1C(F)(F)F (stereo partly drawn) [Compound I-497] | < 10 | < 10
12 | O=C(NC1(C(=O)O)C2CC3CC(C2)CC1C3)c1cnc(-c2cn(C3CCC4(CC3)COC4)c3cc(O[C@H]4CC[C@H](N5CC(F)(F)C5)CC4)ccc23)nc1C(F)(F)F (stereo partly drawn) [Compound I-498] | < 10 | < 10
13 | O=C(NC1(C(=O)O)C2CC3CC(C2)CC1C3)c1cnc(-c2cn(C3CCOCC3)c3cc(O[C@H]4CC[C@H](N5CC(F)(F)C5)CC4)ccc23)nc1C(F)(F)F (stereo partly drawn) [Compound I-499] | < 10 | < 10
14 | O=C(NC1(C(=O)O)C2CC3CC(C2)CC1C3)c1cnc(N2CC3(CCCCC3)c3cc(O[C@H]4CC[C@@H](N5CC(F)(F)C5)CC4)ccc32)nc1C(F)(F)F (stereo partly drawn) [Compound I-500] | < 10 | < 10
15 | O=C(NC1(C(=O)O)C2CC3CC(C2)CC1C3)c1cnc(N2CC3(CCCCC3)c3cc(O[C@H]4CC[C@H](n5cncn5)CC4)ccc32)nc1C(F)(F)F (stereo partly drawn) [Compound I-501] | < 10 | < 10
16 | O=C(NC1(C(=O)O)C2CC3CC(C2)CC1C3)c1cnc(N2CC3(CCCC3)c3cc(OC4CCN(C5CC(F)(F)C5)CC4)ccc32)nc1C(F)(F)F (stereo not drawn) [Compound I-502] | 10 to 100 | < 10
17 | CC(F)(F)c1nc(N2CC3(CCOCC3)c3cc(OC4CCN(c5ncc(F)cn5)CC4)ncc32)ncc1C(=O)NC1(C(=O)O)C2CC3CC(C2)CC1C3 (stereo not drawn) [Compound I-503] | < 10 | < 10

Row | Compound | EC50 [1] [nM] | EC50 [2] [nM]
18 | O=C(NC1(C(=O)O)C2CC3CC(C2)CC1C3)c1cnc(N2CC3(CCCCC3)c3cc(C(=O)N4CCN(c5ncc(F)cn5)CC4)ccc32)nc1C(F)(F)F (stereo not drawn) [Compound I-504] | < 10 | < 10
19 | O=C(NC1(C(=O)O)C2CC3CC(C2)CC1C3)c1cnc(N2CC3(CCCCC3)c3cc(C(=O)N4CCN(CC(F)(F)F)CC4)ccc32)nc1C(F)(F)F (stereo not drawn) [Compound I-505] | < 10 | < 10
20 | CC(F)(F)c1nc(N2CC3(CCOCC3)c3cc(O[C@H]4CC[C@H](N5CC(F)(F)C5)CC4)ccc32)ncc1C(=O)NC1(C(=O)O)C2CC3CC(C2)CC1C3 (stereo partly drawn) [Compound I-506] | < 10 | < 10
21 | COC[C@@H](C)n1cc(-c2ncc(C(=O)NC3(C(=O)O)C4CC5CC(C4)CC3C5)c(C(F)(F)F)n2)c2ccc(O[C@H]3CC[C@H](N4CC(F)(F)C4)CC3)cc21 (stereo partly drawn) [Compound I-507] | < 10 | < 10
22 | COC[C@H](C)n1cc(-c2ncc(C(=O)NC3(C(=O)O)C4CC5CC(C4)CC3C5)c(C(F)(F)F)n2)c2ccc(O[C@H]3CC[C@H](N4CC(F)(F)C4)CC3)cc21 (stereo partly drawn) [Compound I-508] | < 10 | < 10
23 | O=C(NC1(C(=O)O)C2CC3CC(C2)CC1C3)c1ccc(-c2cn(C3CCC(F)(F)CC3)c3cc(OC4CCN(CC(F)(F)F)CC4)ccc23)nc1C(F)(F)F (stereo not drawn) [Compound I-511] | 10 to 100 | < 10
24 | CC(F)(F)CN1CCC(Oc2ccc3c(-c4ccc(C(=O)NC5(C(=O)O)C6CC7CC(C6)CC5C7)c(C(F)(F)F)n4)cn(C4CCC(F)(F)CC4)c3c2)CC1 (stereo not drawn) [Compound I-512] | 10 to 100 | < 10
25 | O=C(NC1(C(=O)O)C2CC3CC(C2)CC1C3)c1ccc(-c2cn(C3CC3)c3cc(O[C@H]4CC[C@H](N5CC(F)(F)C5)CC4)ccc23)nc1C(F)(F)F (stereo partly drawn) [Compound I-513] | < 10 | < 10
26 | O=C(NC1(C(=O)O)C2CC3CC(C2)CC1C3)c1ccc(-c2cn(C3CCC(F)(F)CC3)c3cc(O[C@H]4CC[C@@H](N5CC(F)(F)C5)CC4)ccc23)nc1C(F)(F)F (stereo partly drawn) [Compound I-514] | 10 to 100 | < 10
27 | O=C(NC1(C(=O)O)C2CC3CC(C2)CC1C3)c1cnc(N2CC3(CCCCC3)c3cc(OC4CCN(CC(F)(F)F)C4)ccc32)nc1C(F)(F)F (stereo not drawn) [Compound I-517] | 10 to 100 | < 10
28 | O=C(NC1(C(=O)O)C2CC3CC(C2)CC1C3)c1cnc(N2CC3(CCCCC3)c3cc(O[C@@H]4CCN(CC(F)(F)F)C4)ccc32)nc1C(F)(F)F (stereo partly drawn) [Compound I-518] | < 10 | < 10
29 | O=C(NC1(C(=O)O)C2CC3CC(C2)CC1C3)c1cnc(N2CC3(CCCCC3)c3cc(OC4CCN(c5ncco5)CC4)ccc32)nc1C(F)(F)F (stereo not drawn) [Compound I-519] | < 10 | < 10
30 | N#Cc1cnc(N2CCC(Oc3ccc4c(c3)C3(CCCCC3)CN4c3ncc(C(=O)NC4(C(=O)O)C5CC6CC(C5)CC4C6)c(C(F)(F)F)n3)CC2)nc1 (stereo not drawn) [Compound I-520] | < 10 | < 10
31 | N#CCN1CCC(Oc2ccc3c(c2)C2(CCCCC2)CN3c2ncc(C(=O)NC3(C(=O)O)C4CC5CC(C4)CC3C5)c(C(F)(F)F)n2)CC1 (stereo not drawn) [Compound I-521] | 10 to 100 | < 10
32 | COc1cnc(N2CCC(Oc3ccc4c(c3)C3(CCCCC3)CN4c3ncc(C(=O)NC4(C(=O)O)C5CC6CC(C5)CC4C6)c(C(F)(F)F)n3)CC2)nc1 (stereo not drawn) [Compound I-522] | < 10 | < 10
33 | O=C(NC1(C(=O)O)C2CC3CC(C2)CC1C3)c1cnc(N2CC3(CCCCC3)c3cc(OC4CCN(c5cnccn5)CC4)ccc32)nc1C(F)(F)F (stereo not drawn) [Compound I-523] | < 10 | < 10
